This assay has as its target T1, HCV-NS5b (Hepatitis C virus genotype 1b, UniProt Q9WMX2).
T1 construct: (His)6 (C); made in house; host or cells: XL-1 cells (E. coli), IPTG-inducible plasmid, nickel-NTA purification
As to the kind of experiment: HCV-NS5b enzyme assay (incorporation of radiolabeled UTP). In kind it is biochemical. Conditions: for inhibition at 33 µM: enzyme inhibition at compound concentration of 33 uM; for inhibition at 100 µM: read-out: % inh@100, enzyme inhibition at compound concentration of 100 uM. An outline of the steps: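 Percent inhibition, background-corrected against uninhibited control, was measured at 100 and 33 uM compound. Incorporation of [3H]-UTP (10 μM each NTP) into biotinylated HCV-template RNA, 37° C for 2 h, pH 7.5, scintillation proximity. Enzyme: C-terminally truncated (21 aa), His6-tagged NS5b from XL-1.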

The source of these data is patent US7511145B2 (Genelabs Technologies, Inc., priority 2003, dated 2009).

On to `CCCN(CCC)Cc1ccc2cc(-c3nc4cc(C(=O)O)ccc4n3C3CCCCC3)ccc2n1` [Compound 489, 1-cyclohexyl-2-(2-dipropylaminomethyl-quinolin-6-yl)-1H-benzoimidazole-5-carboxylic acid], for which the inhibition at 33 µM was determined as 87% and the inhibition at 100 µM is 96%.

With `O=C(O)c1cnc2c(c1)nc(-c1ccc3nc(-c4ccccc4-c4ccc(Cl)cc4)ccc3c1)n2C1CCCCC1` [Compound 490, 2-[2-(4′-chloro-biphen-2-yl)-quinolin-6-yl]-3-cyclohexyl-3H-imidazo[4,5-b]pyridine-6-carboxylic acid], the inhibition at 33 µM stood at 95.9% and the inhibition at 100 µM was determined as 94.3%.

Regarding `CN(C)CCNC(=O)c1ccc(-c2ccc(Cl)cc2)c(-c2ccc3cc(-c4nc5cc(C(=O)O)ccc5n4C4CCCCC4)ccc3n2)c1` [Compound 491, 2-{2-[4′-Chloro-4-(2-dimethylamino-ethylcarbamoyl)-biphen-2-yl]-quinolin-6-yl}-1-cyclohexyl-1H-benzoimidazole-5-carboxylic acid], the inhibition at 33 µM was found to be 98.3% and the inhibition at 100 µM worked out at 100%.

As to `O=C(O)c1ccc2c(c1)nc(-c1ccc3nc(-c4ccc(Oc5ccc(Cl)cc5)cc4Cl)ccc3c1)n2C1CCCCC1` [Compound 492, 2-{2-[2-chloro-4-(4-chloro-phenoxy)-phenyl]-quinolin-6-yl}-1-cyclohexyl-1H-benzoimidazole-5-carboxylic acid], the inhibition at 33 µM was found to be 99.2% and the inhibition at 100 µM stood at 100%.

For the compound `COc1ccc2occ(-c3ccc4cc(-c5nc6cc(C(=O)O)ccc6n5C5CCCCC5)ccc4n3)c2c1` [Compound 493, 1-cyclohexyl-2-[2-(5-methoxy-benzofuran-3-yl)-quinolin-6-yl]-1H-benzoimidazole-5-carboxylic acid], the inhibition at 33 µM was determined as 101% and the inhibition at 100 µM is 100%.

Consider `CCOc1cc(-c2ccccc2)nc2ccc(-c3nc4cc(C(=O)O)ccc4n3C3CCCCC3)cc12` [Compound 494, 1-cyclohexyl-2-(4-ethoxy-2-phenyl-quinolin-6-yl)-1H-benzoimidazole-5-carboxylic acid], for which the inhibition at 33 µM is 94.8% and the inhibition at 100 µM is 99.2%.

As to `COc1cc(OC)cc(-c2ccc3cc(-c4nc5cc(C(=O)O)ccc5n4C4CCCCC4)ccc3n2)c1` [Compound 495, 1-cyclohexyl-2-[2-(3,5-dimethoxy-phenyl)-quinolin-6-yl]-1H-benzoimidazole-5-carboxylic acid], the inhibition at 33 µM was found to be 99.8% and the inhibition at 100 µM amounted to 101%.

Turning to `O=C(O)c1ccc2c(c1)nc(-c1ccc3nc(-c4ccccc4)cc(Oc4ccccc4)c3c1)n2C1CCCCC1` [Compound 496, 1-cyclohexyl-2-(4-phenoxy-2-phenyl-quinolin-6-yl)-1H-benzoimidazole-5-carboxylic acid], the inhibition at 33 µM is 101% and the inhibition at 100 µM was determined as 101%.

For `CC(NC(=O)c1ccc2cc(-c3nc4cc(C(=O)O)ccc4n3C3CCCCC3)ccc2n1)C(N)=O` (stereo not shown) [Compound 497, 2-[2-(1-Carbamoylethylcarbamoyl)quinolin-6-yl]-1-cyclohexyl-1H-benzimidazole-5-carboxylic acid], the inhibition at 33 µM was found to be 65.5% and the inhibition at 100 µM came out at 88.5%.

With `Cc1cc(-c2ccccc2)nc2ccc(-c3nc4cc(C(=O)O)ccc4n3C3CCCCC3)cc12` [Compound 498, 1-Cyclohexyl-2-(4-methyl-2-phenyl-quinolin-6-yl)-1H-benzoimidazole-5-carboxylic acid], the inhibition at 33 µM was 98.5% and the inhibition at 100 µM amounted to 100%.

Take `COc1ccc(-c2ccccc2)c(-c2ccc3cc(-c4nc5cc(C(=O)O)ccc5n4C4CCCCC4)ccc3n2)c1` [Compound 499, 1-Cyclohexyl-2-[2-(4-methoxy-biphen-2-yl)-quinolin-6-yl]-1H-benzoimidazole-5-carboxylic acid]: the inhibition at 33 µM turned out to be 101% and the inhibition at 100 µM came to 99.7%.

For the compound `O=C(O)c1ccc2c(c1)nc(-c1ccc3nc(-c4cc(O)ccc4-c4ccc(Cl)cc4)ccc3c1)n2C1CCCCC1` [Compound 500, 2-[2-(4′-Chloro-4-hydroxy-biphen-2-yl)-quinolin-6-yl]-1-cyclohexyl-1H-benzoimidazole-5-carboxylic acid], the inhibition at 33 µM was 101% and the inhibition at 100 µM stood at 101%.

In the case of `CC(=O)Nc1ccc(-c2ccc3cc(-c4nc5cc(C(=O)O)ccc5n4C4CCCCC4)ccc3n2)cc1` [Compound 501, 2-[2-(4-acetylamino-phenyl)-quinolin-6-yl]-1-cyclohexyl-1H-benzoimidazole-5-carboxylic acid], the inhibition at 33 µM is 90.6% and the inhibition at 100 µM worked out at 96.8%.

For the compound `CC1(C)C(CC(=O)O)CC1c1ccc2cc(-c3nc4cc(C(=O)O)ccc4n3C3CCCCC3)ccc2n1` (stereo not shown) [Compound 502, 2-[2-(3-carboxymethyl-2,2-dimethyl-cyclobutyl)-quinolin-6-yl]-1-cyclohexyl-1H-benzoimidazole-5-carboxylic acid], the inhibition at 33 µM is 99% and the inhibition at 100 µM was found to be 100%.

As to `O=C(O)c1ccc2c(c1)nc(-c1ccc3nc(-c4cccc(OCC(=O)N5CCCC5)c4)ccc3c1)n2C1CCCCC1` [Compound 503, 1-cyclohexyl-2-{2-[3-(2-oxo-2-pyrrolidin-1-yl-ethoxy)-phenyl]-quinolin-6-yl}-1H-benzoimidazole-5-carboxylic acid], the inhibition at 33 µM worked out at 95.8% and the inhibition at 100 µM stood at 97%.

For `CN(C)CCNC(=O)c1ccc(-c2ccccc2)c(-c2ccc3cc(-c4nc5cc(C(=O)O)ccc5n4C4CCCCC4)ccc3n2)c1` [Compound 504, 1-Cyclohexyl-2-{2-[4-(2-dimethylamino-ethylcarbamoyl)-biphen-2-yl]-quinolin-6-yl}-1H-benzoimidazole-5-carboxylic acid], the inhibition at 33 µM was found to be 98.3% and the inhibition at 100 µM was determined as 100%.

With `Cc1oc(-c2ccc(Cl)cc2)cc1-c1ccc2cc(-c3nc4cc(C(=O)O)ccc4n3C3CCCCC3)ccc2n1` [Compound 505, 2-{2-[5-(4-chloro-phenyl)-2-methyl-furan-3-yl]-quinolin-6-yl}-1-cyclohexyl-1H-benzoimidazole-5-carboxylic acid], the inhibition at 33 µM was 99.7% and the inhibition at 100 µM turned out to be 102%.

As for `CCOCCOc1ccc(-c2ccc(Cl)cc2)c(-c2ccc3cc(-c4nc5cc(C(=O)O)ccc5n4C4CCCCC4)ccc3n2)c1` [Compound 507, 2-{2-[4′-Chloro-4-(2-ethoxy-ethoxy)-biphen-2-yl]-quinolin-6-yl}-1-cyclohexyl-1H-benzoimidazole-5-carboxylic acid], the inhibition at 33 µM is 101% and the inhibition at 100 µM is 101%.

Consider `O=C(O)c1ccc2c(c1)nc(-c1ccc3nc(-c4ccc(Cl)c(Cl)c4)ccc3c1)n2C1CCCCC1` [Compound 508, 1-cyclohexyl-2-[2-(3,4-dichloro-phenyl)-quinolin-6-yl]-1H-benzoimidazole-5-carboxylic acid], for which the inhibition at 33 µM is 98.9% and the inhibition at 100 µM turned out to be 98.9%.

For `O=C(O)c1ccc2c(c1)nc(-c1ccc3nc(-c4ccccc4)cc(Oc4ccc5ccc(O)cc5c4)c3c1)n2C1CCCCC1` [Compound 509, 1-cyclohexyl-2-[4-(7-hydroxy-naphthalen-2-yloxy)-2-phenyl-quinolin-6-yl]-1H-benzoimidazole-5-carboxylic acid], the inhibition at 33 µM worked out at 100% and the inhibition at 100 µM worked out at 101%.

Regarding `O=C(O)c1ccc2c(c1)nc(-c1ccc3nc(C(=O)Nc4ccc(Cl)cc4)ccc3c1)n2C1CCCCC1` [Compound 510, 2-[2-(4-Chlorophenylcarbamoyl)quinolin-6-yl]-1-cyclohexyl-1H-benzimidazole-5-carboxylic acid], the inhibition at 33 µM turned out to be 99.5% and the inhibition at 100 µM was 100%.

For `CC(C)[C@H](NC(=O)c1ccc2cc(-c3nc4cc(C(=O)O)ccc4n3C3CCCCC3)ccc2n1)C(N)=O` [Compound 511, 2-[2-(1-Carbamoyl-2-methylpropylcarbamoyl)quinolin-6-yl]-1-cyclohexyl-1H-benzimidazole-5-carboxylic acid], the inhibition at 33 µM is 78.4% and the inhibition at 100 µM stood at 95%.

`C[C@@H](O)[C@H](NC(=O)c1ccc2c(c1)nc(-c1ccc3nc(-c4ccccc4)cnc3c1)n2C1CCCCC1)C(=O)O` [Compound 512, 2-{[1-Cyclohexyl-2-(2-phenyl-quinoxalin-6-yl)-1H-benzoimidazole-5-carbonyl]-amino}-3-hydroxy-butyric acid]: the inhibition at 33 µM was determined as 78.9% and the inhibition at 100 µM worked out at 97.9%.

Consider `CC(C)C[C@H](NC(=O)c1ccc2c(c1)nc(-c1ccc3nc(-c4ccccc4)cnc3c1)n2C1CCCCC1)C(=O)O` [Compound 513, 2-{[1-Cyclohexyl-2-(2-phenyl-quinoxalin-6-yl)-1H-benzoimidazole-5-carbonyl]-amino}-4-methyl-pentanoic acid], for which the inhibition at 33 µM is 93.2% and the inhibition at 100 µM was found to be 95.9%.

Take `O=C(c1ccc2c(c1)nc(-c1cc3ccc(-c4ccccc4-c4ccc(Cl)cc4)nc3cc1F)n2C1CCCCC1)N1CCC(O)CC1` [Compound 514, {2-[2-(4′-Chloro-biphen-2-yl]-7-fluoro-quinolin-6-yl]-1-cyclohexyl-1H-benzoimidazol-5-yl}-(4-hydroxy-piperidin-1-yl)-methanone]: the inhibition at 33 µM turned out to be 89.6% and the inhibition at 100 µM was 91.9%.

`CSCC[C@H](NC(=O)c1ccc2c(c1)nc(-c1ccc3nc(-c4ccccc4)cnc3c1)n2C1CCCCC1)C(=O)O` [Compound 515, 2-{[1-Cyclohexyl-2-(2-phenyl-quinoxalin-6-yl)-1H-benzoimidazole-5-carbonyl]-amino}-4-methylsulfanyl-butyric acid]: the inhibition at 33 µM was 81.9% and the inhibition at 100 µM was found to be 88.3%.
